Results from paper PMC11094777, “Mutational and structural studies of (βα)8‐barrel fold methylene‐tetrahydropterin reductases utilizing a common catalytic mechanism” (Protein Science : A Publication of the Protein Society, 2024).
Where two headings read alike, the source gives them in different places.

Tests used:
Experiment in all cases: F420H2 oxidation followed at […] nm, anaerobic
Type in all cases: biochemical
[1] = target: T1, jMer (F420-dependent methylene-H4MPT reductase from Methanocaldococcus jannaschii) (Methanocaldococcus jannaschii, UniProt Q58929, E6Q, form not given); conditions: 20 μM F420H2, 100 mM Tris/HCl pH 8.0, 55°C; read-out: App. K m
T1 construct: gene mer; pT7-7_jMer in E. coli ArcticExpress (DE3); no tag mentioned; heat step and column purification; homodimer ~80 kDa

[2] = target: T2, jMer (F420-dependent methylene-H4MPT reductase from Methanocaldococcus jannaschii) (Methanocaldococcus jannaschii, UniProt Q58929); conditions: 20 μM F420H2, 100 mM Tris/HCl pH 8.0, 55°C; read-out: App. K m
T2 construct: gene mer; pT7-7_jMer in E. coli ArcticExpress (DE3); no tag mentioned; heat step and column purification; homodimer ~80 kDa

[3] = target: T3, jMer (F420-dependent methylene-H4MPT reductase from Methanocaldococcus jannaschii) (Methanocaldococcus jannaschii, UniProt Q58929, D96N, form not given); conditions: 20 μM F420H2, 100 mM Tris/HCl pH 8.0, 55°C; read-out: App. K m
T3 construct: gene mer; pT7-7_jMer in E. coli ArcticExpress (DE3); no tag mentioned; heat step and column purification; homodimer ~80 kDa

[4] = target: T2, jMer (F420-dependent methylene-H4MPT reductase from Methanocaldococcus jannaschii); conditions: 20 μM F420H2, 100 mM Tris/HCl pH 8.0, 55°C; methylene-H4MPT made in situ from H4MPT and 15 mM formaldehyde; read-out: App. K m

T2 sequence (Q58929 whole entry): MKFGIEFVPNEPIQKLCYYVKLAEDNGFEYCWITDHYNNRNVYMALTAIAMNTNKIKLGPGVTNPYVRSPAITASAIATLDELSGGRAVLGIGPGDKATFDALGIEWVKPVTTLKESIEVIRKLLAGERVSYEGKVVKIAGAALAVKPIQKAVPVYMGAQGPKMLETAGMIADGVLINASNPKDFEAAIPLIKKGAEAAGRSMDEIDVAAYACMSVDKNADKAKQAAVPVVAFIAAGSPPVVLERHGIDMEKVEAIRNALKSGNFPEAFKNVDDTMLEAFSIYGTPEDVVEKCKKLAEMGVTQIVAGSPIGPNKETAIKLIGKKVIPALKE
T1 sequence (Q58929 whole entry E6Q, form open): as the sequence (Q58929 whole entry) above, with E6Q counted along it
T3 sequence (Q58929 whole entry D96N, form open): as the sequence (Q58929 whole entry) above, with D96N counted along it

Km [1]: 34 ± 10 µM | Km [2]: 20 ± 5 µM | Km [3]: 140 ± 30 µM | Km [4]: 58 ± 29.7 µM
SMILES: C[C@@H]1Nc2nc(N)[nH]c(=O)c2N2CN(c3ccc(C[C@H](O)[C@H](O)[C@H](O)CO[C@H]4O[C@H](COP(=O)(O)O[C@@H](CCC(=O)O)C(=O)O)[C@@H](O)[C@H]4O)cc3)[C@H](C)[C@@H]12 [Methylene‐H4MPT]
